Earlier results in patent publication US20050186168A1, “Skin remodeling and regenerative compositions containing elastin peptide ligands having the amino acid sequence (XGXXPG)n” (priority 2004, published 2005).

Assays:
[1] = test system: pro-MMP-1; conditions: for concentration sufficient to stimulate pro-MMP-1 production: fibroblast culture, comparable stimulation levels
[2] = test system: pro-MMP-3
[3] = test system: Human lymphocytes; conditions: 1 microgram/ml
[4] = test system: elastin-laminin receptor (ELR); conditions: 5 micrograms/ml (140 micromolar), 10th and 15th passage
[5] = test system: human skin fibroblasts
[6] = test system: MMP-1 mRNA; conditions: after 24 h of culture; standardized with 36B4 cDNA probe
[7] = 1 mM lactose in fibroblast culture medium

In the case of `OC[C@H]1O[C@@H](O[C@H]2[C@H](O)[C@@H](O)C(O)O[C@@H]2CO)[C@H](O)[C@@H](O)[C@H]1O` (stereo partly shown) [lactose], the “inhibition of VGVAPG-stimulating effect on pro-MMP-1 production” value [1, 7] is listed as 80%, the “inhibition of kE-stimulated pro-MMP-1 production” value [1, 7] is listed as 35% and the “effect on pro-MMP-1 accumulation stimulated by interleukin-1” value ([1]; lactose alone) is listed as “no effect”. The “accumulation of pro-MMP-3 in the medium” value ([2]; cells treated with 1 mM lactose) was “decreased” and the “elastin peptide-induced cell death” value [3] was “inhibited”.

In the case of `OC[C@H]1O[C@H](OCC2O[C@@H](O)[C@H](O)[C@@H](O)[C@@H]2O)[C@H](O)[C@@H](O)[C@H]1O` (stereo partly shown) [melibiose], the fibronectin biosynthesis [4] is given as “decreased”, the total protein biosynthesis [4] is given as “decreased” and the “incorporation of the tracer in GAGs” value [5] is given as “increased”. The “post-synthetic degradation of hyaluronan” value [5] was “inhibited” and the “elastin peptide-induced cell death” value [3] was “inhibited”.

For GVAPGV, the “efficiency of pro-MMP-1 induction relative to VGVAPG (more efficient)” value ([1]; compared with VGVAPG) is listed as 20%.

In the case of LGTIPG, the “stimulation of MMP-1 expression” value ([1]; laminin-derived peptide) is given as “Stimulation of MMP-1 expression could also be achieved”.

For VGVAPG, the pro-MMP-1 induction level [1] is given as 1 ng/h/10^5 fibroblasts, the “concentration sufficient to stimulate pro-MMP-1 production” value (“concentration sufficient” for short) [1] is given as 200 µg/mL and the “MMP-1 mRNA levels increased” value [6] is given as 8 fold. The “expression of proteins reacting with anti-MMP-3 antibody (pro-MMP-3)” value ([2]; Western blotting, stimulated fibroblasts) was “significantly up-regulated”.

For “interleukin-1 receptor antagonist: interleukin-1 receptor antagonist”, the “blocking of elastin peptide-dependent induction of pro-MMP-1” value [1] is given as “could not be blocked”.

B1: Elastin: extracellular matrix protein elastin (protein, UniProt P15502 27-786, looked up)
Elastin: GGVPGAIPGGVPGGVFYPGAGLGALGGGALGPGGKPLKPVPGGLAGAGLGAGLGAFPAVTFPGALVPGGVADAAAAYKAAKAGAGLGGVPGVGGLGVSAGAVVPQPGAGVKPGKVPGVGLPGVYPGGVLPGARFPGVGVLPGVPTGAGVKPKAPGVGGAFAGIPGVGPFGGPQPGVPLGYPIKAPKLPGGYGLPYTTGKLPYGYGPGGVAGAAGKAGYPTGTGVGPQAAAAAAAKAAAKFGAGAAGVLPGVGGAGVPGVPGAIPGIGGIAGVGTPAAAAAAAAAAKAAKYGAAAGLVPGGPGFGPGVVGVPGAGVPGVGVPGAGIPVVPGAGIPGAAVPGVVSPEAAAKAAAKAAKYGARPGVGVGGIPTYGVGAGGFPGFGVGVGGIPGVAGVPGVGGVPGVGGVPGVGISPEAQAAAAAKAAKYGAAGAGVLGGLVPGAPGAVPGVPGTGGVPGVGTPAAAAAKAAAKAAQFGLVPGVGVAPGVGVAPGVGVAPGVGLAPGVGVAPGVGVAPGVGVAPGIGPGGVAAAAKSAAKVAAKAQLRAAAGLGAGIPGLGVGVGVPGLGVGAGVPGLGVGAGVPGFGAGADEGVRRSLSPELREGDPSSSQHLPSTPSSPRVPGALAAAKAAKYGAAVPGVLGGLGALGGVGIPGGVVGAGPAAAAAAAKAAAKAAQFGLVGAAGLGGLGVGGLGVPGVGGLGGIPPAAAAKAAKYGAAGLGGVLGGAGQFPLGGVAARPGFGLSPIFPGGACLGKACGRKRK
For B1, the “concentration sufficient” value [1] is listed as 50 µg/mL.

B2: tropoelastin: the soluble precursor of elastin (protein, UniProt P15502 27-786, looked up)
Elastin: GGVPGAIPGGVPGGVFYPGAGLGALGGGALGPGGKPLKPVPGGLAGAGLGAGLGAFPAVTFPGALVPGGVADAAAAYKAAKAGAGLGGVPGVGGLGVSAGAVVPQPGAGVKPGKVPGVGLPGVYPGGVLPGARFPGVGVLPGVPTGAGVKPKAPGVGGAFAGIPGVGPFGGPQPGVPLGYPIKAPKLPGGYGLPYTTGKLPYGYGPGGVAGAAGKAGYPTGTGVGPQAAAAAAAKAAAKFGAGAAGVLPGVGGAGVPGVPGAIPGIGGIAGVGTPAAAAAAAAAAKAAKYGAAAGLVPGGPGFGPGVVGVPGAGVPGVGVPGAGIPVVPGAGIPGAAVPGVVSPEAAAKAAAKAAKYGARPGVGVGGIPTYGVGAGGFPGFGVGVGGIPGVAGVPGVGGVPGVGGVPGVGISPEAQAAAAAKAAKYGAAGAGVLGGLVPGAPGAVPGVPGTGGVPGVGTPAAAAAKAAAKAAQFGLVPGVGVAPGVGVAPGVGVAPGVGLAPGVGVAPGVGVAPGVGVAPGIGPGGVAAAAKSAAKVAAKAQLRAAAGLGAGIPGLGVGVGVPGLGVGAGVPGLGVGAGVPGFGAGADEGVRRSLSPELREGDPSSSQHLPSTPSSPRVPGALAAAKAAKYGAAVPGVLGGLGALGGVGIPGGVVGAGPAAAAAAAKAAAKAAQFGLVGAAGLGGLGVGGLGVPGVGGLGGIPPAAAAKAAKYGAAGLGGVLGGAGQFPLGGVAARPGFGLSPIFPGGACLGKACGRKRK
In the case of B2, the “concentration sufficient” value [1] is listed as 50 µg/mL.
